In patent publication US20220028483A1, “SYSTEMS AND METHODS FOR CLASSIFYING TUMORS” (PRESIDENT AND FELLOWS OF HARVARD COLLEGE, priority 2018, published 2022):

Test system: breast cancer cell lines
Assay: Drug response (IC50, GDSC data) of breast cancer cell lines classified Signature 3-positive or -negative by SigMA
Type: cell-based
Settings: five Signature 3-positive vs twelve Signature 3-negative breast cancer cell lines; p=0.044, Kolmogorov-Smirnov test
Description: To test the hypothesis that the presence of Signature 3 indicates susceptibility to PARP inhibition, the response of diverse cancer cell lines was examed to the two popular PARP inhibitors olaparib and velirapib (Supplementary Methods Section 12). The disclosed SigMA example algorithm was first applied to 700 cell lines from the Cancer Cell Line Encyclopedia (CCLE) project (Basu et al., 2013) to identify those with Signature 3. Mutation calls from a 1651-gene panel and copy number calls from single-nucleotide polymorphism (SNP) arrays were available for each cell line. In applying SigMA, a stringent filter was used to discriminate the cell lines with Signature 3 mutations from those without Signature 3 but with a large number of in vitro culture-associated mutations (Online Methods and Supplementary Methods Section 12). Also, cell lines with MSI signatures were removed to minimize their confounding effect (see Vilar Sanchez et al. (2009), and Supplementary FIG. 6f). […]
Among 1074 cell lines in total, the mutational spectra of 700 cell lines were analyzed of major tumor types with SigMA, but only 136 of these had drug response data for either olaparib or veliparib. […]

## O=C(c1cc(Cc2n[nH]c(=O)c3ccccc23)ccc1F)N1CCN(C(=O)C2CC2)CC1 [olaparib]
  fold decrease of IC50 values in Signature 3-positive vs Signature 3-negative cell lines: 2.6 fold
